Key:
Experiment in all cases: Alzheimer's biomarker multiplex analysis, scopolamine-damaged SH-SY5Y
Assay type in all cases: cell-based, human
Conditions in all cases: Scopolamine (4 mM)
b-NGF = test system: b-NGF
Procedure: (§1) After overnight incubation as in the previous examples, cells were treated with recombinant lectin protein having SEQ ID NO: 1 at different concentrations ranging from 0.001 μg/ml-1 μg/ml for 24 h for Parkinson disease and 0.01 μg/ml-25 μg/ml for 24 h for Alzheimer's disease. • Parkinson Disease: After 24 h of pre-treatment with recombinant lectin protein having SEQ ID NO: 1, cells were exposed (MPP+) for another 24 h. Cells treated with MPP+Iodide were included as Control. […] The cells treated with Galantamine were included as positive Control.
(§2) The levels of markers were determined by multiplex analysis as: Cell culture supernatants were diluted (1:2) with Calibrator Diluent. 50 μl of standard or sample was added per well. 50 μl of the microparticle cocktail was added to each well of the microplate and covered with a foil plate sealer. The plate was incubated for 2 hours at room temperature on a horizontal orbital microplate shaker. The plate was washed using a magnetic device designed to accommodate a microplate. Washing was done by applying the magnet to the bottom of the microplate, allowing 1 minute before removing the liquid, filling each well with wash buffer (100 μl) and allowing 1 minute before removing the liquid again. 50 μl of diluted Biotin-Antibody Cocktail was added to each well. Covered the plate with a foil plate sealer and incubated for 1 hour at room temperature on the shaker. Repeated the wash step. 50 μl of diluted Streptavidin-PE was added to each well. The plate was securely covered with a foil plate sealer and incubated for 30 minutes at room temperature on the shaker. Repeated the wash step. The microparticles were resuspended by adding 100 μl of Wash Buffer to each well. The plate was incubated for 2 minutes on the shaker and read within 90 minutes using Magpix® multiplex machine. Levels of biomarkers for Parkinson's and Alzheimer's disease were estimated using Magpix® multiplex machine.
(§3) For Alzheimer's disease the percent modulation in each sample was determined as follows: […]

MPO = test system: MPO
Procedure: as §1, §2, §3

RAGE = test system: RAGE
Procedure: as §1, §2, §3

COc1ccc2c3c1O[C@H]1C[C@@H](O)C=C[C@@]31CCN(C)C2 [Galantamine, reference compound]
% Change of Biomarkers markers (wrt Control) b-NGF (b-NGF; 1 μM): 9.1% | % Change of Biomarkers markers (wrt Control) b-NGF (b-NGF; 10 μM): 0% | % Change of Biomarkers markers (wrt Control) b-NGF (b-NGF; 100 μM): −9% | % Change of Biomarkers markers (wrt Control) MPO (MPO; 1 μM): −64% | % Change of Biomarkers markers (wrt Control) MPO (MPO; 10 μM): −31.2% | % Change of Biomarkers markers (wrt Control) MPO (MPO; 100 μM): −45.9% | % Change of Biomarkers markers (wrt Control) RAGE (RAGE; 1 μM): 0% | % Change of Biomarkers markers (wrt Control) RAGE (RAGE; 10 μM): 0% | % Change of Biomarkers markers (wrt Control) RAGE (RAGE; 100 μM): −38.7%
